{
  "source": "patent EP3050567B1",
  "about": "“COMPOUND FOR ACTIVATING AMPK AND USES THEREOF” (Energenesis Biomedical Co., Ltd., priority 2013, dated 2015)",
  "key": {"muscle cell C2C12": {"system": "muscle cell C2C12", "assay": "Glucose uptake in vitro (fluorescent glucose analog 2-NBDG)", "format": "cell-based, Mouse", "conditions": "C2C12 cells, 30 min, mean±SEM of three experiments", "method": "Effects of adenine on glucose uptake were analyzed by measuring the uptake of fluorescent glucose analog (2-NBDG, Molecular Probes) in muscle cell C2C12. C2C12 cells were treated with indicated concentrations of adenine for 30 min at 37°C, and then incubated with 500 µM of fluorescent glucose analog. After 5 min incubation at room temperature, cells were washed three times with Kreb-Hepes buffered solution and fixed in 70% alcohol. The fluorescence of glucose analog in cells was measured using a Fluorescence Microplate Reader System."}, "AMPK [1]": {"system": "AMPK", "assay": "AMPK activation assay (phospho-AMPK Thr172 western blot) in HUVEC cells", "format": "cell-based, human", "conditions": "30 min", "method": "(§1) Effects of adenine on AMPK activation were evaluated based on the phosphorylation of AMPK protein upon adenine treatment. Mouse muscle cell C2C12, mouse fibroblast 3T3, human liver carcinoma cell Hep G2, human breast adenocarcinoma cell line MCF7 and human colon adenocarcinoma grade II cell line HT29, human umbilical vein endothelial cell HUVEC, Human acute monocytic leukemiacell THP1, human macrophage cell U937, murine microglia cell BV-2, and mouse neuroblastoma cell Neuro2A and dermal papilla cell were cultured in high-glucose Dulbecco's modified Eagle's medium (DMEM) containing 10% fetal bovine serum (FBS), 4 mM L-glutamine, 2 mM sodium pyruvate and 1% penicillin/streptomycin (Invitrogen GibcoBRL, Carlsbad, Calif., USA) at 37°C, under 5% CO2. Cells were plated at 3 × 10^5 per well in 6-well plates. Twenty-four hours after plating, adenine was added to the culture media as indicated. After 30 min cells were lysed and subject to western blot analysis. Equal amount of protein from each sample was separated by SDS-PAGE and then electroblotted on to PVDF membranes. Membranes were blocked with 3% BSA in PBS for 60 min and incubated with an anti-phospho-AMPK (Thr172) antibody (1:2,000, Cell signaling) or an anti-AMPK antibody (1:2,000, Cell signaling) at 4°C for 16 h followed by the corresponding secondary antibody for 1 h at room temperature (RT). Immunoreactive bands were detected by enhanced chemiluminescence and recorded using Kodak film. The detected signals were scanned and then quantified using TotalLab Quant software (TotalLab)."}, "MCF7": {"system": "MCF7", "assay": "Cancer cell growth inhibition assay, MCF7", "format": "cell-based", "conditions": "Homo sapiens; MCF7 cell proliferation, 72 h, cell counting", "method": "(§2) Human liver hepatocellular carcinoma cell line Hep G2, human breast adenocarcinoma cell line MCF7 and human colon adenocarcinoma grade II cell line HT29 were used to evaluate the effects of adenine on cell proliferation. Those cell lines were obtained from ATCC and were cultured in high-glucose Dulbecco's modified Eagle's medium (DMEM) containing 10% fetal bovine serum (FBS), 4 mM L-glutamine, 2 mM sodium pyruvate and 1% penicillin/streptomycin (Invitrogen GibcoBRL, Carlsbad, Calif., USA) at 37°C under 5% CO2. Cells were plated at 1 × 10^5 per well (6-well plate). Twenty-four hours after plating, cells were treated with indicated concentration of adenine for 72 h and then followed by cell counting. Cells were detached using trypsin-EDTA solution and stained with trypan blue. The living cells were counted using hemocytometer."}, "[2]": {"system": "6-mm full-thickness excisional skin wounds", "assay": "Wound healing and scar formation, excisional skin wounds in mice", "format": "in vivo, C57BL/6J mice", "conditions": "14 days", "method": "C57BL/6J mice were maintained at 22°C under a 12-h light/dark cycle. The experiments were performed with 12-week-old mice. After anesthetized by an intraperitoneal injection of ketamine (500 mg/kg) and xylazine (100 mg/kg), 6-mm full-thickness excisional skin wounds was made on the backs of mice using 6-mm skin biopsy punches. Immediately after wounding, 10-1200 µM of adenine or saline alone was applied to the wound bed. The skin wounds were then covered by semipermeable transparent dressing and fixed to the skin. The mice were treated with adenine or vehicle for 14 days and then sacrificed. The scar formation is assessed by Masson's trichrome staining (the tissue was fixed by 4% paraformaldehyde)."}, "Hep G2 cells": {"system": "Hep G2 cells", "assay": "Tumor growth assay, Hep G2 implanted subcutaneously", "format": "in vivo", "conditions": "Hep G2 implanted NOD-SCID mice, daily IP adenine 5, 20 or 50 mg/kg, 14 days post implantation, vs control mice", "method": "Human liver hepatocellular carcinoma cell line Hep G2 were cultured in high-glucose Dulbecco's modified Eagle's medium (DMEM) containing 10% fetal bovine serum (FBS), 4 mM L-glutamine, 2 mM sodium pyruvate and 1% penicillin/streptomycin (Invitrogen GibcoBRL, Carlsbad, Calif., USA) at 37°C under 5% CO2. For tumor implantation, 5 × 10^6 Hep G2 cells were injected subcutaneously into 8-week-old male nonobese diabetic-severe combined immunodeficiency (NOD-SCID) mice. After implantation, the mice were daily intraperitoneally injected with 5, 20 or 50 mg/kg body weight of adenine and the tumor size was monitored every 3 days."}, "[3]": {"system": "TNBS-induced inflammatory bowel disease (IBD) mice model", "assay": "TNBS induced inflammation in vivo (relapsing colitis)", "set-up": "species or system C57BL/6J mice", "conditions": "daily IP adenine 0.01, 0.1, 5 or 30 mg/kg", "method": "To further evaluate the effects of adenine on inflammatory response, TNBS-induced inflammatory bowel disease (IBD) mice model was used. C57BL/6J mice were maintained at 22° C, under a 12-h light/dark cycle. Relapsing colitis was induced with five escalating doses of TNBS, 0.5 mg, 0.75 mg, 1.0 mg, 1.25 mg, and 1.5 mg, in 50% ethanol were administered respectively for 0.1 mL per mouse weekly. After the third administration of TNBS, daily intraperitoneal injection of adenine (0.01, 0.1, 5 or 30 mg/kg body weight) or saline were given to mice. Two days after the fifth TNBS administration, mice were sacrificed. The inflammatory cytokines including TNF, INFγ and IL-17 from colonic lysates were evaluated by enzyme-linked immunosorbent assays."}, "AMPK [4]": {"system": "AMPK", "assay": "AMPK activation assay (phospho-AMPK Thr172 western blot) in Neuro2A cells", "format": "cell-based, mouse", "conditions": "30 min", "method": "as §1"}, "AMPK [5]": {"system": "AMPK", "assay": "AMPK activation assay (phospho-AMPK Thr172 western blot) in MCF7 cells", "format": "cell-based, human", "conditions": "30 min", "method": "as §1"}, "HT29": {"system": "HT29", "assay": "Cancer cell growth inhibition assay, HT29", "format": "cell-based", "conditions": "Homo sapiens, HT-29; HT29 cell proliferation, 72 h, cell counting", "method": "as §2"}, "AMPK [6]": {"system": "AMPK", "assay": "AMPK activation assay (phospho-AMPK Thr172 western blot) in dermal papilla cells", "format": "cell-based", "conditions": "30 min", "method": "as §1"}, "[7]": {"conditions": "colonic lysates, dose-dependent, vs non-adenine treated mice"}},
  "data": [
    {"smiles": "Nc1ncnc2nc[nH]c12", "note": "[Adenine, adenine]", "values": [
      {"measurement": "Glucose uptake (% to control)", "setting": "muscle cell C2C12; adenine 1 microM", "result": "117±8.1 % to control"},
      {"measurement": "Glucose uptake (% to control)", "setting": "muscle cell C2C12; adenine 10 microM", "result": "261±13.4 % to control"},
      {"measurement": "Glucose uptake (% to control)", "setting": "muscle cell C2C12; adenine 100 microM", "result": "315±11.9 % to control"},
      {"measurement": "Glucose uptake (% to control)", "setting": "muscle cell C2C12; adenine 600 microM", "result": "338±16.5 % to control"},
      {"measurement": "AMPK activation (fold to control)", "setting": "AMPK [1]; adenine 1 microM", "result": "1.2 fold to control"},
      {"measurement": "AMPK activation (fold to control)", "setting": "AMPK [1]; adenine 10 microM", "result": "1.9 fold to control"},
      {"measurement": "AMPK activation (fold to control)", "setting": "AMPK [1]; adenine 100 microM", "result": "3.2 fold to control"},
      {"measurement": "AMPK activation (fold to control)", "setting": "AMPK [1]; adenine 200 microM", "result": "3.9 fold to control"},
      {"measurement": "AMPK activation (fold to control)", "setting": "AMPK [1]; adenine 600 microM", "result": "4.1 fold to control"},
      {"measurement": "IC50", "setting": "MCF7", "result": 538, "unit": "µM"},
      {"measurement": "extent of closure", "setting": "[2]; topical 10-1200 µM adenine on wound bed, dose-dependent, vs control mice", "result": "significantly greater"},
      {"measurement": "scar width", "setting": "[2]; topical 10-1200 µM adenine, histological examination, vs vehicle treated wounds", "result": "significantly decreased"},
      {"measurement": "growth of tumor", "setting": "Hep G2 cells", "result": "significantly retarded"},
      {"measurement": "body weight loss caused by TNBS", "setting": "[3]", "result": "rescued the body weight loss"},
      {"measurement": "level of IL-17 in colon", "setting": "[3]; [7]", "result": "significantly reduced"},
      {"measurement": "level of INFγ in colon", "setting": "[3]; [7]", "result": "significantly reduced"},
      {"measurement": "level of TNF in colon", "setting": "[3]; [7]", "result": "significantly reduced"},
      {"measurement": "AMPK activation (fold to control)", "setting": "AMPK [4]; adenine 1 microM", "result": "1.2 fold to control"},
      {"measurement": "AMPK activation (fold to control)", "setting": "AMPK [4]; adenine 10 microM", "result": "2.1 fold to control"},
      {"measurement": "AMPK activation (fold to control)", "setting": "AMPK [4]; adenine 100 microM", "result": "3.4 fold to control"},
      {"measurement": "AMPK activation (fold to control)", "setting": "AMPK [5]; adenine 1 microM", "result": "1.2 fold to control"},
      {"measurement": "AMPK activation (fold to control)", "setting": "AMPK [5]; adenine 10 microM", "result": "1.6 fold to control"},
      {"measurement": "AMPK activation (fold to control)", "setting": "AMPK [5]; adenine 100 microM", "result": "2.5 fold to control"},
      {"measurement": "AMPK activation (fold to control)", "setting": "AMPK [5]; adenine 200 microM", "result": "3.4 fold to control"},
      {"measurement": "AMPK activation (fold to control)", "setting": "AMPK [5]; adenine 600 microM", "result": "3.7 fold to control"},
      {"measurement": "IC50", "setting": "HT29", "result": 532, "unit": "µM"},
      {"measurement": "AMPK activation (fold to control)", "setting": "AMPK [6]; adenine 1 microM", "result": "1.1 fold to control"},
      {"measurement": "AMPK activation (fold to control)", "setting": "AMPK [6]; adenine 10 microM", "result": "1.4 fold to control"},
      {"measurement": "AMPK activation (fold to control)", "setting": "AMPK [6]; adenine 100 microM", "result": "2.1 fold to control"},
      {"measurement": "AMPK activation (fold to control)", "setting": "AMPK [6]; adenine 200 microM", "result": "2.5 fold to control"},
      {"measurement": "AMPK activation (fold to control)", "setting": "AMPK [6]; adenine 600 microM", "result": "2.8 fold to control"}
    ]}
  ]
}
